# US20080089844A1 (priority 2002, published 2008)
# “Also recorded” adds a separate entry of the source. Where two headings read alike, the source gives them in different places.
# Columns and labels:
# Kv1.4 = Kv1.4 (Homo sapiens, UniProt P22459); settings: cited from earlier work
# [1] = system: primary cultures of myocytes; format: cell-based, rat
# Nav1.2 = Nav1.2 (Homo sapiens, UniProt Q99250); settings: cited from earlier work
# Kv1.1 = Kv1.1 (Homo sapiens, UniProt Q09470); settings: cited from earlier work
# F425G Shaker mutation = F425G Shaker mutation (Drosophila melanogaster, UniProt P08510, F425G); settings: cited from earlier work
# Nav1.5 = Nav1.5 (Homo sapiens, UniProt Q14524); settings: cited from earlier work
# Kv1.3 = Kv1.3 (Homo sapiens, UniProt P22001); settings: cited from earlier work
# eag = eag (Homo sapiens, UniProt O95259); settings: cited from earlier work
# [2] = system: New Zealand White rabbits; settings: rabbit, in vivo
# Kv2.1 = Kv2.1 (Homo sapiens, UniProt Q14721); settings: cited from earlier work
# [3] = rat, in vivo, iv
# herg = herg (Homo sapiens, UniProt Q12809); settings: cited from earlier work
# [4] = system: ventricular myocyte, cortex and trachea primary cultures; format: cell-based, rat
# Kv4.2 = Kv4.2 (Homo sapiens, UniProt Q9NZV8); settings: cited from earlier work
# [5] = system: trout Shaker homolog (Sha1); settings: cited from earlier work
# [6] = system: cardiac ventricular myocytes; format: cell-based, rat
# Kv3.4 = Kv3.4 (Homo sapiens, UniProt Q03721); settings: cited from earlier work
# Shaker potassium channel = Shaker potassium channel (Drosophila melanogaster, UniProt P08510); settings: cited from earlier work
# Chain of Shaker potassium channel (P08510 whole entry, looked up): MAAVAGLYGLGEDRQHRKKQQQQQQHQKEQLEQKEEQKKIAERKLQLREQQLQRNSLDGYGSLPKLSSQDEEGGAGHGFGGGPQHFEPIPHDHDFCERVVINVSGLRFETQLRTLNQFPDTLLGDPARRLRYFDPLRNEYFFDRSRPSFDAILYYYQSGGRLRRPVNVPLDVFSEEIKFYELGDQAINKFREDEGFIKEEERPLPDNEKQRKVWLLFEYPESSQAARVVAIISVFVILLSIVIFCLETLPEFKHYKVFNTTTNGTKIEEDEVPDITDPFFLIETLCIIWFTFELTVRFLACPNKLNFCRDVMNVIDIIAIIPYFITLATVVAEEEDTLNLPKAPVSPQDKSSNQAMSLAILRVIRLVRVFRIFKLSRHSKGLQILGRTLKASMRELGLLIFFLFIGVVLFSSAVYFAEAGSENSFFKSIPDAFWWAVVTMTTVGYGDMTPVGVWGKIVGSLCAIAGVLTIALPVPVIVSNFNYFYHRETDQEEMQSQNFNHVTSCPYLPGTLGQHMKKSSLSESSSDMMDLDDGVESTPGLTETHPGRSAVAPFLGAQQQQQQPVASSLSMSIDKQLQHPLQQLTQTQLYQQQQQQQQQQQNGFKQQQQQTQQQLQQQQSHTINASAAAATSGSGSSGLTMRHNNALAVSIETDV
# Chain of Kv2.1 (Q14721 whole entry, looked up): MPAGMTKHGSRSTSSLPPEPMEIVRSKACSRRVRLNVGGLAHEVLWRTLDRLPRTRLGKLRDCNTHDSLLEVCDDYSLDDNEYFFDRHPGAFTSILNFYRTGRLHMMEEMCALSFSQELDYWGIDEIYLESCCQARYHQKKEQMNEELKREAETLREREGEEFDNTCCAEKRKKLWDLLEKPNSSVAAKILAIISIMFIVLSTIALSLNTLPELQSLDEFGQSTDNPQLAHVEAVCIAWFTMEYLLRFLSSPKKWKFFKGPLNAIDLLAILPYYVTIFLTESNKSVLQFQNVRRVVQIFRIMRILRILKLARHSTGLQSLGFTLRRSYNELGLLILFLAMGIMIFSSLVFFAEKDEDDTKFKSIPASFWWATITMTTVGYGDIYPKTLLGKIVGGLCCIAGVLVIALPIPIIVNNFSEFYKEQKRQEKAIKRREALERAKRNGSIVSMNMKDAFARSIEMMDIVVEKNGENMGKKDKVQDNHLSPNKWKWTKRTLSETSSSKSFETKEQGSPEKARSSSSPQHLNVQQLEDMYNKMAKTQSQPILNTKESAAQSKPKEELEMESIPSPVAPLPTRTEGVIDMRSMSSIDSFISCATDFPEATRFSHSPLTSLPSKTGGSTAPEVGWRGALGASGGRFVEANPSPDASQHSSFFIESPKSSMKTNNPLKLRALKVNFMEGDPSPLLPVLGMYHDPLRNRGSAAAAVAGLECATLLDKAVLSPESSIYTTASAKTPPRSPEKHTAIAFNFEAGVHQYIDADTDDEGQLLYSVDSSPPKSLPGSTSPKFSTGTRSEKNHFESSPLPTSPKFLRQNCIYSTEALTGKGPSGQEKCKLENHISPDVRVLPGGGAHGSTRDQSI
# Chain of Kv1.3 (P22001 whole entry, looked up): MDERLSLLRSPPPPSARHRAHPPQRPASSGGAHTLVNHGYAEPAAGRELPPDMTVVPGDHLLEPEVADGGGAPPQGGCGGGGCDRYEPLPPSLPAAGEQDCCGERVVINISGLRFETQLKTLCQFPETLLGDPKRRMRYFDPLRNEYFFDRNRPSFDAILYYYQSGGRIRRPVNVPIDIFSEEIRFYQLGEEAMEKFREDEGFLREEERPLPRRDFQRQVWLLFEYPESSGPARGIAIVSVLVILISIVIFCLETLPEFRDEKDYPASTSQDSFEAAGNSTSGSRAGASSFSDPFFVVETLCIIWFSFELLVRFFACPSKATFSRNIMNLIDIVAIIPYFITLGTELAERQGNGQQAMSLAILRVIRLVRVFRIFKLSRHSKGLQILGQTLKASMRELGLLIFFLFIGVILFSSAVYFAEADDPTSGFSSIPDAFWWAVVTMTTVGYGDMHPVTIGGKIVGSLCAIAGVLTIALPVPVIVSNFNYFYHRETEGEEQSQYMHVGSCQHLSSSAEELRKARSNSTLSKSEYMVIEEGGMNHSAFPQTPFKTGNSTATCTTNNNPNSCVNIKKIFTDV
# Chain of Nav1.2 (Q99250 whole entry, looked up): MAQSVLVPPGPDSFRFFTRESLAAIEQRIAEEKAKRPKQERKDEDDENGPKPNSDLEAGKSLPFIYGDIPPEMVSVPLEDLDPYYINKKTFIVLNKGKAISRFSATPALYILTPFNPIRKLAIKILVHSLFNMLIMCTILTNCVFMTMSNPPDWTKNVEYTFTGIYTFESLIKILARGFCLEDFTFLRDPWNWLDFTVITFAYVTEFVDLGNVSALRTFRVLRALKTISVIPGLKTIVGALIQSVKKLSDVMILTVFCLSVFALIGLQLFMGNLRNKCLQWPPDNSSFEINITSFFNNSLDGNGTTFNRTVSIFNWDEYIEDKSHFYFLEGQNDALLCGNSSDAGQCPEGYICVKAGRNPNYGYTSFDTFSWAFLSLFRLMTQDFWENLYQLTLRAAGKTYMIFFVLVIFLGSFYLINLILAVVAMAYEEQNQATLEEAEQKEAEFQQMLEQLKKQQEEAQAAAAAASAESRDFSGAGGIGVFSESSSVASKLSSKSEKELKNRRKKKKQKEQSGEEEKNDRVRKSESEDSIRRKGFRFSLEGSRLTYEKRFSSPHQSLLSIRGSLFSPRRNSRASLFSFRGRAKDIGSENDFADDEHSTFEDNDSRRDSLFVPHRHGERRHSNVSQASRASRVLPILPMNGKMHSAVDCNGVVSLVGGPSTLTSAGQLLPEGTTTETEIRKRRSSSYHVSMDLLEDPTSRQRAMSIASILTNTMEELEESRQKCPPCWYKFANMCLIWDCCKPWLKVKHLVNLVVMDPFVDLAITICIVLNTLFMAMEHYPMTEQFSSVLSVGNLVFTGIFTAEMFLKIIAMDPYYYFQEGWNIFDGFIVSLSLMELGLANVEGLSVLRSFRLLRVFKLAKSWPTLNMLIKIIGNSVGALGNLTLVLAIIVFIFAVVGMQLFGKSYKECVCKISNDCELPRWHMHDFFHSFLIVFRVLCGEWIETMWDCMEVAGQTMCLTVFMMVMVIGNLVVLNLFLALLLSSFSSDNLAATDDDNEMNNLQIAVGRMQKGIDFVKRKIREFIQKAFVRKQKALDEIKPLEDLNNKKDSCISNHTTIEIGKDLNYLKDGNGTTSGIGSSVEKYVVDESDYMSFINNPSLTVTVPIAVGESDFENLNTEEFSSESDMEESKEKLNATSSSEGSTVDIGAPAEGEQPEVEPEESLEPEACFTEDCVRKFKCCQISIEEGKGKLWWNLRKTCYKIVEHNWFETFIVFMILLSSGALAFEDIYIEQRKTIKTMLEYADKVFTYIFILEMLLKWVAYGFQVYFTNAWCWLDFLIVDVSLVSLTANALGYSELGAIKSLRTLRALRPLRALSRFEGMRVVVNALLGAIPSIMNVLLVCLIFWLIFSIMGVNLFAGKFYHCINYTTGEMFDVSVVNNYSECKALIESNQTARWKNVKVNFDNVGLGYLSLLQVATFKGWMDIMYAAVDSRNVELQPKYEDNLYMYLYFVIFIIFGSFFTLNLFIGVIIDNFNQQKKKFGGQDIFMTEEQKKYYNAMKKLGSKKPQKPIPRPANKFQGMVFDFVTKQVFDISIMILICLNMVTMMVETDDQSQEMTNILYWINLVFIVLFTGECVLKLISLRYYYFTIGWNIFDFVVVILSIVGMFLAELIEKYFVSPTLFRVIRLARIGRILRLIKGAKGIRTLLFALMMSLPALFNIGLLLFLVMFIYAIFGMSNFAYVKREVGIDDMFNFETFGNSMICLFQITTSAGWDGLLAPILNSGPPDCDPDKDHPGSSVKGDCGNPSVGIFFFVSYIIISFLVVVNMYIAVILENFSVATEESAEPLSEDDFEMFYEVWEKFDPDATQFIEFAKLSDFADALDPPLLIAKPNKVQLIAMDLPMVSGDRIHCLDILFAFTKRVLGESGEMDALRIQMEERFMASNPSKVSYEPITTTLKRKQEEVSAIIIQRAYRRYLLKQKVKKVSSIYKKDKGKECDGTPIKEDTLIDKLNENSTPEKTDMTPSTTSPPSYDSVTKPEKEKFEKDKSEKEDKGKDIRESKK
# Chain of F425G Shaker mutation (P08510 whole entry F425G, looked up): as the sequence (P08510 whole entry, looked up) above, with F425G counted along it
# Chain of Kv3.4 (Q03721 whole entry, looked up): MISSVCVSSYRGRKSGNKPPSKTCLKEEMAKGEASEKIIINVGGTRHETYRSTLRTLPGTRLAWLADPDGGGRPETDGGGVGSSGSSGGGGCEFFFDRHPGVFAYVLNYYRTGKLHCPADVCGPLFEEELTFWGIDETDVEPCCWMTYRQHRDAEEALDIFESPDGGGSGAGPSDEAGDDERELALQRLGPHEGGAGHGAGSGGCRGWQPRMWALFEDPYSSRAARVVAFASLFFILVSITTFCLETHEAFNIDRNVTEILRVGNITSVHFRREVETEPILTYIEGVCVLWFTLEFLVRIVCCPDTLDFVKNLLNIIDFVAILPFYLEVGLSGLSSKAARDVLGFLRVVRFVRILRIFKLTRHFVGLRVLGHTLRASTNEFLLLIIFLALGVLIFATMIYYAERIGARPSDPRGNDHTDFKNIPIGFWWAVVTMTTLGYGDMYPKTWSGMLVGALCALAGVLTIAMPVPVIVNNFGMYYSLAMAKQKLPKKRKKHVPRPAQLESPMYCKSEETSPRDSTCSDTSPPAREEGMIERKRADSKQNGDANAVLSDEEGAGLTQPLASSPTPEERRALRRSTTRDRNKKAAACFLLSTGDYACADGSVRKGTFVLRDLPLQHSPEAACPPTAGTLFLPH
substance,measurement,setting,value
Leu-X2-Ser-Cys-Cys-Ser-Leu-Asn-Leu-X1-Leu-Cys-X2-Val-X2-Ala-Cys-X3-X1-Asn-X2-Cys-Cys-Thr [κM-RIIIK],activity on Kv1.4,Kv1.4,no detectable activity
same,induction of glibenclamide-sensitive currents,[1],induces glibenclamide-sensitive currents in primary cultures of myocytes in a highly potent manner
same,activity on Nav1.2,Nav1.2,no detectable activity
same,activity on Kv1.1,Kv1.1,no detectable activity
same,effect of F425G Shaker mutation on κM-RIIIK sensitivity,F425G Shaker mutation,decreases κM-RIIIK sensitivity
same,activity on Nav1.5,Nav1.5,no detectable activity
same,activity on Kv1.3,Kv1.3,no detectable activity
same,activity on eag,eag,no detectable activity
same,infarct size,[2],reduces the infarct size
same,hemodynamic effect,[2]; iv,without any hemodynamic effect
same,activity on Kv2.1,Kv2.1,no detectable activity
same,effect on blood pressure,[3],no effect
same,effect on heart rate,[3],no effect
same,activity on herg,herg,no detectable activity
same,protection against hypoxia-induced changes in intracellular calcium,[4],able to provide protection against hypoxia
same,activity on Kv4.2,Kv4.2,no detectable activity
same,"state dependence of inhibition, open vs closed state affinity",[5],three to four times lower affinity for the open state
same,IC50,"[5]; read-out: IC50 on Sha1, closed state",20 nM
same,IC50,"[5]; read-out: IC50 on Sha1, open state",60 nM
same,infarct size,isolated rabbit hearts,reduces the infarct size
same,protection against hypoxia-induced depolarization,[6],prevents any hypoxia-induced changes in membrane potential; also recorded: strong protective effect; also recorded: confers protection against hypoxia-induced depolarization
same,activity on Kv3.4,Kv3.4,no detectable activity
same,"state dependence of inhibition, open vs closed state affinity",Shaker potassium channel,three to four times lower affinity for the open state
same,IC50,"Shaker potassium channel; read-out: IC50, antagonist of the Shaker potassium channel",~1200 nM
